“Also recorded” adds a separate entry of the source. Where a SMILES comes first, the peptide text is derived from it.
How the values were obtained:
NEP [1] = molecular target: T1, NEP (Rattus norvegicus, UniProt P07861); assay: 3H-Substance P hydrolysis by rat spinal cord membrane preparations; assay type: biochemical
T1 construct: incubations of membrane and fresh tissue slice preparations from nervous tissues; from tissue; host or cells: dorsal spinal cord of male Wistar rats (fresh slices or 100 000 x g membrane fraction)
T1 sequence (P07861 1-750): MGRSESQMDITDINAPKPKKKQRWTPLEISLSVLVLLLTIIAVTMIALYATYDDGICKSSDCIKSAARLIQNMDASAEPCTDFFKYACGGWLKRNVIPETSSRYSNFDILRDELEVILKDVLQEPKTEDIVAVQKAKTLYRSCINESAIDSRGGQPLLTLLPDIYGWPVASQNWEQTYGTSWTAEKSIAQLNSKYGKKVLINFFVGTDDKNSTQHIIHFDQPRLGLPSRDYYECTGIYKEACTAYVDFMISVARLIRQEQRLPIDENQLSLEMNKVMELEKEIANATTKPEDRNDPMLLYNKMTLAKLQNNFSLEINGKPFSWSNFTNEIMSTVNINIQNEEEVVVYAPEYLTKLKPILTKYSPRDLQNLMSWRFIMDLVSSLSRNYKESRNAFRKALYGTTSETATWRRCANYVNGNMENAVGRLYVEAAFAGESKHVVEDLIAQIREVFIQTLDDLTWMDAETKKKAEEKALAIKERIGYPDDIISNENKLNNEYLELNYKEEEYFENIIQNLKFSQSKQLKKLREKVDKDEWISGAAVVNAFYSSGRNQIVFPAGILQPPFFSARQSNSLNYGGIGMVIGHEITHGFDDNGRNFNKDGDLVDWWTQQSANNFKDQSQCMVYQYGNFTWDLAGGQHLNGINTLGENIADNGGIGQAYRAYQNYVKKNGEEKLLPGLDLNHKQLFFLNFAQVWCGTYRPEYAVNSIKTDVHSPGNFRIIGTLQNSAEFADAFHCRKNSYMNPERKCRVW
Experimental: FIG. 1-A: Influence of spinal cord membrane protein concentration on Substance P hydrolysis (25 nM) in the presence or absence of the synthetic NEP inhibitor, Phosphoramidon, 10 μM. Each point represents the percent of 3H-substance P hydrolyzed by spinal cord membrane incubated 15 min. at 30° C. in a 250 μl final volume of Tris/HCl buffer. […] Each point represents the percent of 3H-substance P hydrolyzed by 250 μg membrane proteins incubated at 25° C. in a 250 μl final volume of Tris/HCl buffer. FIG. 3-B: Concentration-dependent inhibition by […] NO: 2) of 3H-Substance P (12.5 nM) catabolism by rat spinal cord membrane preparations. Comparison with-a NEP inhibitor, Phosphoramidon and, -CPB and DPPIV inhibitors, […] inhibitor. Comparison between the inhibitory activity exerted by […] NO: 2) peptide alone or in combination with CPB and DPPIV inhibitors. […] The metabolism rate of the NEP-sensitive peptides was measured using the both NEP substrates involved in the signaling of the nociceptive response: the neuropeptides Met-enkephalin and Substance P. […] The temperature and the time of the incubation as well as the concentration of substrate and of membrane enzyme are defined according to the results such as the NEP hydrolysis activity will be measured under conditions of initial velocity. […] The radioactivity of eluted and isolated compounds is determined by liquid scintillation spectrometry.

NEP [2] = molecular target: T1, NEP; assay: 3H-Substance P hydrolysis by rat spinal cord slices; assay type: biochemical; conditions: 10 μM combined with GEMSA (10 μM) and DPPIV inhibitor (10 μM), 25° C., read-out: inhibition of Substance P degradation
Experimental: For the experiments of analysis of the NEP peptidase activity, an ex vivo model using incubations of membrane and fresh tissue slice preparations from nervous tissues that are known to be appropriate for exploring NEP peptidase activity: i.e. the dorsal zone of rat spinal cord, was first developed. […] (NEN, 12.5-25 nM) were used.
The objective was to measure the NEP-specific endoproteolysis of these substrates.

NEP inhibiting activity compared with phosphoramidon (NEP [1]; peptide combined with the inhibitors of CPB and DPPIV): greater than that of phosphoramidon | inhibition at 10 µM (NEP [2]): > 90%
Compound: N=C(N)NCCC[C@H](NC(=O)[C@@H]1CCCN1C(=O)[C@H](CC(N)=O)NC(=O)[C@H](Cc1c[nH]cn1)NC(=O)[C@@H](N)CCC(N)=O)C(=O)O [sialorphin, Gln-His-Asn-Pro-Arg] (H-QHNPR-OH; N-terminus and C-terminus assumed)
inhibitory potency / protection of Substance P compared with reference NEP inhibitors (NEP [1]; peptide alone, listed as SMR1-QHNPR): equivalent t0 that obtained with Phosphoramidon; also recorded: equivalent to that of two well-known NEP-specific inhibitors, Thiorphan and Phosphoramidon
